Data: US9504251B2, “Pesticidal compositions and related methods” (Dow AgroSciences LLC, priority 2014, dated 2016)

Legend:
[1] = test system: Sweetpotato Whitefly-crawler (Bemisia tabaci) (WF) (BEMITA); assay: Sweetpotato whitefly-crawler (WF) foliar spray assay on cotton plants; assay type: in vivo; settings: 216 h, 200 ppm foliar spray on cotton plants, graded after 9 days, Abbott-corrected % control, disclosed compounds (TABLE 2), read-out: WF % Control (or Mortality) rating
Method: Foliar spray assay for WF was prepared as follows: Cotton plants (Gossypium hirsutum) grown in 3-inch pots, with 1 small (4-5 cm) true leaf, were used as test substrate. The plants were infested with 200-400 whitefly eggs 4-5 days prior to chemical application. Four pots with individual plants were used for each treatment. Tested compounds (2 mg) were dissolved in 1 mL of acetone solvent, forming stock solutions of 2000 ppm tested compound.
The stock solutions were diluted ten times with 0.025% TWEEN® 20 surfactant in H2O (diluents) to obtain the solution at 200 ppm tested compound. A hand-held aspirator-type sprayer was used for spraying the solution to both sides of cotton leaves until runoff. The control plants (solvent check) were sprayed with the diluent only containing 10% by volume of acetone solvent. Treated plants were held in a holding room for 9 days at approximately 25° C. and ambient relative humidity (RH) prior to grading. Evaluation was conducted by counting the number of live 3-4 nymph stage per plant under a microscope. Percent control was measured by using Abbott's correction formula (W. S. Abbott, “A Method of Computing the Effectiveness of an Insecticide,” J. Econ. Entomol. 18 (1925), pp. 265-267) as follows. Corrected % Control=100*(X−Y)/X
X=No. of live nymphs on solvent check plants and
Y=No. of live nymphs on treated plants.
(§1) The comparative compounds were tested for insecticidal activities against GPA and WF pests using the same test protocols described above for the disclosed compounds.

[2] = test system: Green Peach Aphid (Myzus persicae) (GPA) (MYZUPE); assay: Green peach aphid (GPA) foliar spray bioassay on cabbage seedlings; assay type: in vivo; settings: 72 h, 200 ppm foliar spray on cabbage seedlings, graded after three days, Abbott-corrected % control, disclosed compounds (TABLE 2), read-out: GPA % Control (or Mortality) rating
Method: Bioassay for GPA was prepared as follows: Cabbage seedlings grown in 3-inch pots, with 2-3 small (3-5 cm) true leaves, were used as test substrate. The seedlings were infested with 20-50 GPA (adult and nymph stages) one day prior to chemical application. Four pots with individual seedlings were used for each treatment. The tested compounds (2 mg) were dissolved in 2 mL of acetone/methanol (1:1) solvent to form stock solutions of 1000 ppm tested compound. The stock solutions were diluted five times with an aqueous solution containing 0.025% TWEEN® 20 surfactant, which is polyoxyethylene (20) sorbitan monolaurate, to obtain the solution at 200 ppm tested compound. A hand-held aspirator-type sprayer was used for spraying the solution to both sides of cabbage leaves until runoff. The control plants (solvent check) were sprayed with the diluent only containing 20% by volume of acetone/methanol (1:1) solvent. Treated plants were held in a holding room for three days at approximately 25° C. and ambient relative humidity (RH) prior to grading. Evaluation was conducted by counting the number of live aphids per plant under a microscope. Percent control was measured by using Abbott's correction formula (W. S. Abbott, “A Method of Computing the Effectiveness of an Insecticide,” J. Econ. Entomol. 18 (1925), pp. 265-267) as follows. Corrected % Control=100*(X−Y)/X
X=No. of live aphids on solvent check plants and
Y=No. of live aphids on treated plants
as §1

Compound | mortality at 200 ppm [1] | mortality at 200 ppm [2]
CC(C)N1CCc2nn(-c3cccnc3)cc2C1=O [Compound F6, 5-Isopropyl-2-(3-pyridyl)-6,7-dihydropyrazolo[4,3-c]pyridin-4-one] | 80 to 100% | 80 to 100%
O=C1c2cn(-c3cccnc3)nc2CCN1c1cc(C(F)(F)F)ccn1 [Compound F7, 2-(3-Pyridyl)-5-[4-(trifluoromethyl)-2-pyridyl]-6,7-dihydropyrazolo[4,3-c]pyridin-4-one] | 80 to 100% | 80 to 100%
CCOC(=O)CN1CCc2nn(-c3cccnc3)cc2C1=O [Compound F8, ethyl 2-(4-oxo-2-(pyridin-3-yl)-6,7-dihydro-2H-pyrazolo[4,3-c]pyridin-5(4H)-yl)acetate] | 80 to 100% | 80 to 100%
O=C1c2cn(-c3cccnc3)nc2CCN1c1ncccc1C(F)(F)F [Compound F10, 2-(3-Pyridyl)-5-[3-(trifluoromethyl)-2-pyridyl]-6,7-dihydropyrazolo[4,3-c]pyridin-4-one] | 0 to 80% | 0 to 80%
CSCCC(=O)N1CCc2nn(-c3cccnc3)cc2C1=O [Compound F12, 5-(3-(methylthio)propanoyl)-2-(pyridin-3-yl)-6,7-dihydro-2H-pyrazolo[4,3-c]pyridin-4(5H)-one] | 0 to 80% | 80 to 100%
O=C1c2cn(-c3cccnc3)nc2CCN1c1ccc(C(F)(F)F)cc1 [Compound F13, 2-(3-Pyridyl)-5-[4-(trifluoromethyl)phenyl]-6,7-dihydropyrazolo[4,3-c]pyridin-4-one] | 0 to 80% | 80 to 100%
O=C1c2cn(-c3cccnc3)nc2CCN1c1ccc(OC(F)(F)F)cc1 [Compound F14, 2-(3-Pyridyl)-5-[4-(trifluoromethoxy)phenyl]-6,7-dihydropyrazolo[4,3-c]pyridin-4-one] | 0 to 80% | 80 to 100%
COc1ccccc1CN1CCc2nn(-c3cccnc3)cc2C1=O [Compound F15, 5-[(2-Methoxyphenyl)methyl]-2-(3-pyridyl)-6,7-dihydropyrazolo[4,3-c]pyridin-4-one] | 80 to 100% | 0 to 80%
O=C1c2cn(-c3cccnc3)nc2CCN1Cc1ccccc1F [Compound F17, 5-(2-fluorobenzyl)-2-(pyridin-3-yl)-6,7-dihydro-2H-pyrazolo[4,3-c]pyridin-4(5H)-one] | 80 to 100% | 0 to 80%
COc1cccc(N2CCc3nn(-c4cccnc4)cc3C2=O)n1 [Compound F18, 5-(6-Methoxy-2-pyridyl)-2-(3-pyridyl)-6,7-dihydropyrazolo[4,3-c]pyridin-4-one] | 0 to 80% | 0 to 80%
O=C1c2cn(-c3cccnc3)nc2CCN1CCSCCC(F)(F)F [Compound F19, 2-(pyridin-3-yl)-5-(2-((3,3,3-trifluoropropyl)thio)ethyl)-6,7-dihydro-2H-pyrazolo[4,3-c]pyridin-4(5H)-one] | 80 to 100% | 80 to 100%
CSCN1CCc2nn(-c3cccnc3)cc2C1=O [Compound F20, 5-(Methylsulfanylmethyl)-2-(3-pyridyl)-6,7-dihydropyrazolo[4,3-c]pyridin-4-one] | 80 to 100% | 80 to 100%
O=C1c2cn(-c3cccnc3)nc2CCN1c1cncc(C(F)(F)F)c1 [Compound F21, 2-(3-Pyridyl)-5-[5-(trifluoromethyl)-3-pyridyl]-6,7-dihydropyrazolo[4,3-c]pyridin-4-one] | 80 to 100% | 80 to 100%
O=C1c2cn(-c3cccnc3)nc2CCN1c1cccc(OC(F)(F)F)c1 [Compound F22, 2-(3-Pyridyl)-5-[3-(trifluoromethoxy)phenyl]-6,7-dihydropyrazolo[4,3-c]pyridin-4-one] | 80 to 100% | 80 to 100%
COc1ccc(CN2CCc3nn(-c4cccnc4)cc3C2=O)cc1 [Compound F23, 5-[(4-Methoxyphenyl)methyl]-2-(3-pyridyl)-6,7-dihydropyrazolo[4,3-c]pyridin-4-one] | 80 to 100% | 80 to 100%
CN1CCc2nn(-c3cccnc3)cc2C1=O [Compound F28, 5-methyl-2-(pyridin-3-yl)-6,7-dihydro-2H-pyrazolo[4,3-c]pyridin-4(5H)-one] | 0 to 80% | 80 to 100%
O=C1c2cn(-c3cccnc3)nc2CCN1Cc1cccc(C(F)(F)F)c1 [Compound F29, 2-(3-Pyridyl)-5-[[3-(trifluoromethyl)phenyl]methyl]-6,7-dihydropyrazolo[4,3-c]pyridin-4-one] | 80 to 100% | 80 to 100%
C=CCN1CCc2nn(-c3cccnc3)cc2C1=O [Compound F31, 5-allyl-2-(pyridin-3-yl)-6,7-dihydro-2H-pyrazolo[4,3-c]pyridin-4(5H)-one] | 0 to 80% | 80 to 100%
O=C1c2cn(-c3cccnc3)nc2CCN1Cc1ccccc1C(F)(F)F [Compound F32, 2-(3-Pyridyl)-5-[[2-(trifluoromethyl)phenyl]methyl]-6,7-dihydropyrazolo[4,3-c]pyridin-4-one] | 80 to 100% | 0 to 80%
O=C1c2cn(-c3cccnc3)nc2CCN1c1ccc(C(F)(F)F)nc1 [Compound F33, 2-(3-Pyridyl)-5-[6-(trifluoromethyl)-3-pyridyl]-6,7-dihydropyrazolo[4,3-c]pyridin-4-one] | 0 to 80% | 80 to 100%
O=C1c2cn(-c3cccnc3)nc2CCN1c1ncccn1 [Compound F34, 2-(3-Pyridyl)-5-pyrimidin-2-yl-6,7-dihydropyrazolo[4,3-c]pyridin-4-one] | 80 to 100% | 80 to 100%
O=C1c2cn(-c3cccnc3)nc2CCN1c1ccc(C(F)(F)F)cn1 [Compound F37, 2-(pyridin-3-yl)-5-(5-(trifluoromethyl)pyrdin-2-yl)-6,7-dihydro-2H-pyrazolo[4,3-c]pyridin-4(5H)-one] | 80 to 100% | 80 to 100%
O=C1c2cn(-c3cccnc3)nc2CCN1c1cccc(-c2ncccn2)n1 [Compound F38, 2-(3-Pyridyl)-5-(6-pyrimidin-2-yl-2-pyridyl)-6,7-dihydropyrazolo[4,3-c]pyridin-4-one] | < 0% | 0 to 80%
N#CCN1CCc2nn(-c3cccnc3)cc2C1=O [Compound F39, 2-[4-Oxo-2-(3-pyridyl)-6,7-dihydropyrazolo[4,3-c]pyridin-5-yl]acetonitrile] | 0 to 80% | 80 to 100%
CSCCN1CCc2nn(-c3cccnc3)cc2C1=O [Compound F40, 5-(2-(methylthio)ethyl)-2-(pyridin-3-yl)-6,7-dihydro-2H-pyrazolo[4,3-c]pyridin-4(5H)-one] | 80 to 100% | 80 to 100%
O=C(CN1CCc2nn(-c3cccnc3)cc2C1=O)N1CCN(C2CCC2)CC1 [Compound F42, 5-[2-(4-Cyclobutylpiperazin-1-yl)-2-oxo-ethyl]-2-(3-pyridyl)-6,7-dihydropyrazolo[4,3-c]pyridin-4-one] | 80 to 100% | 80 to 100%
O=C1c2cn(-c3cccnc3)nc2CCN1c1ccccn1 [Compound F43, 5-(pyridin-2-yl)-2-(pyridin-3-yl)-6,7-dihydro-2H-pyrazolo[4,3-c]pyridin-4(5H)-one] | 0 to 80% | 80 to 100%
